# pIC50: −log10 of the molar value. Where “and” joins values, the source holds several entries; their conditions need not be identical. Equal values may be shown once. Read-outs that look alike come from different tables or passages of the source.
# Legend:
# [1] = tested on: patients with advanced solid tumors; experiment: Dedicated QTc study: serial triplicate Holter ECGs, change from time-matched baseline; format: in vivo, human; details: for LSM QTcF Change (95% UCB) from time-matched baseline / LSM QTcI Change (95% UCB) from time-matched baseline / LSM heart rate change (95% UCB) from time-matched baseline: 40 mg single oral dose
# Method: The study was conducted at 5 centers across the United States (Montefiore Medical Center, Bronx, New York; Washington University School of Medicine, Saint Louis, Missouri; Stephenson Cancer Center, University of Oklahoma, Oklahoma City, Oklahoma; Mary Crowley Cancer Research Center, Dallas, Texas; and Florida Cancer Specialists/Sarah Cannon Research Institute, Sarasota, Florida) to evaluate the effect of a single oral dose of sapanisertib (40 mg) on the electrocardiographic QT/QTc interval in patients with advanced solid tumors (NCT02197572, clinicaltrials.gov). The primary end point was change from time‐matched baseline in the QTc interval (ΔQTc).
# Patients reported to the study sites on day –1 for collection of serial baseline triplicate ECGs prior to sapanisertib administration (described in the ECG Assessments section). […] The patients were equipped with 12 ECG leads to continuously record patient ECG data onto a Holter H12+ ECG recorder. All procedures that were followed on day –1 were consistent with procedures expected for day 1, with the exception of plasma sample collection for PK assessments, since no sapanisertib was administered on day –1. After collection of the 10‐hour time point ECG on day –1, the patients were furloughed from the study site with Holter recorders still attached. These Holter recorders were to remain attached overnight to continue to collect ECG data into day 1.
# On cycle 1 day 1, triplicate ECGs and plasma samples for PK were collected from patients ≤15 minutes prior to dosing and at 15 minutes; 30 minutes; and 1‐, 1.5‐, 2‐, 2.5‐, 3‐, 4‐, 6‐, 8‐, and 10‐hour time points after receiving a single oral dose of 40‐mg sapanisertib. The Holter recorders and ECG leads were removed from patients after collection of the 10‐hour time point ECG on day 1, following which patients were furloughed from site. Additional collections of ECGs and plasma samples for PK were conducted at 24 (cycle 1 day 2) and 48 hours (cycle 1 day 3) after dosing. After the first week, that is, cycle 1 day 8, patients had the option to continue to receive treatment with sapanisertib at a dose of 30 mg once weekly in continuous 28‐day cycles until disease progression, unacceptable toxicity, withdrawal of consent, or completion of the 12‐month maximum study duration.
# To enable collection of time‐matched ECG and PK data before and after sapanisertib administration, patients reported to the study sites on day –1, during which ECG leads (12 leads) and Holter H12+ ECG recorders were attached. Each planned ECG collection time point was preceded by a 5‐minute supine rest period, after which triplicate ECGs were extracted from the Holter recorders at approximately 2‐ to 5‐minute intervals. Serial triplicate ECGs were collected from 0 to 10 hours, matched to the planned dosing on cycle 1 day 1 predose and postdose ECG and PK time points, to characterize the baseline ECG and QTc interval. All triplicate ECGs were extracted and read centrally (Biotelemetry, Malvern, Pennsylvania). All blood draws for PK were collected after the triplicate ECG collection period.
# The baseline characterization of serial triplicate ECG allowed for patient‐specific individual heart rate correction (QTcI) in addition to the Fridericia's ( QTcF=QT/RR3 ) correction that is commonly used in clinical practice. The patient‐specific slopes were calculated using all pairs of QT and RR (time elapsing between two consecutive R waves in an ECG) interval data collected on day –1 and estimated using the linear regression expression: logQT=loga+b∗logRR to calculate the individual slope (b) for each patient. QTcI was then calculated as QTcI=QT/RR^b
# ECG analysis was conducted in the primary analysis population, which included patients who had all time points collected on Holter ECG monitoring on day –1 and day 1 of cycle 1, including ECG time points collected on cycle 1 day 1 to cycle 1 day 3 at 24 or 48 hours after dosing that had available baseline comparisons. […]
# [2] = tested on: human ether‐à‐go‐go channel; experiment: In vitro hERG channel inhibition; format: biochemical; details: free Cmax 0.3 µM at 40 mg
# [3] = tested on: breast cancer‐ resistance protein; set-up: method as in Takeda data on file; details: in vitro; ref Takeda data on file; cited from earlier work
# [4] = tested on: human ether‐à‐go‐go channel; details: in vitro; cited from earlier work
# monkey = tested on: monkey; set-up: method as in data on file; details: ref data on file, cited from earlier work
# CYP enzymes = details: in vitro, clinically relevant concentrations; cited from earlier work
# [5] = cited from earlier work; for Geometric Mean Cmax: fasted, immediate release capsules, advanced solid tumors, ref data on file 14
# [6] = after 40 mg dose, 32 evaluable patients
structure (smiles),measurement,setting,value
CC(C)n1nc(-c2ccc3oc(N)nc3c2)c2c(N)ncnc21 [sapanisertib],LSM QTcF Change (95% UCB) from time-matched baseline,[1]; 0.25 h after dose,–1.7 (2.2) msec
same,LSM QTcI Change (95% UCB) from time-matched baseline,[1]; 0.25 h after dose,–2.2 (2.2) msec
same,LSM heart rate change (95% UCB) from time-matched baseline,[1]; 0.25 h after dose,–0.2 (2.2) bpm
same,LSM QTcF Change (95% UCB) from time-matched baseline,[1]; 0.5 h after dose,–5.3 (–1.5) msec
same,LSM QTcI Change (95% UCB) from time-matched baseline,[1]; 0.5 h after dose,–8.3 (–4.0) msec
same,LSM heart rate change (95% UCB) from time-matched baseline,[1]; 0.5 h after dose,–4.4 (–1.9) bpm
same,LSM QTcF Change (95% UCB) from time-matched baseline,[1]; 1 h after dose,1.8 msec and 1.8 (5.6) msec
same,LSM QTcI Change (95% UCB) from time-matched baseline,[1]; 1 h after dose,–1.8 (2.6) msec
same,LSM heart rate change (95% UCB) from time-matched baseline,[1]; 1 h after dose,–3.8 (–1.4) bpm
same,LSM QTcF Change (95% UCB) from time-matched baseline,[1]; 1.5 h after dose,0.1 (4.0) msec
same,LSM QTcI Change (95% UCB) from time-matched baseline,[1]; 1.5 h after dose,–2.7 (1.7) msec
same,LSM heart rate change (95% UCB) from time-matched baseline,[1]; 1.5 h after dose,–3.3 (–0.9) bpm
same,LSM QTcF Change (95% UCB) from time-matched baseline,[1]; 2 h after dose,–3.7 (0.1) msec
same,LSM QTcI Change (95% UCB) from time-matched baseline,[1]; 2 h after dose,–5.0 (–0.6) msec
same,LSM heart rate change (95% UCB) from time-matched baseline,[1]; 2 h after dose,–0.8 (1.5) bpm
same,LSM QTcF Change (95% UCB) from time-matched baseline,[1]; 2.5 h after dose,–7.4 (–3.6) msec
same,LSM QTcI Change (95% UCB) from time-matched baseline,[1]; 2.5 h after dose,–7.6 (–3.2) msec
same,LSM heart rate change (95% UCB) from time-matched baseline,[1]; 2.5 h after dose,0.1 (2.5) bpm
same,LSM QTcF Change (95% UCB) from time-matched baseline,[1]; 3 h after dose,–7.6 (–3.7) msec
same,LSM QTcI Change (95% UCB) from time-matched baseline,[1]; 3 h after dose,–9.1 (–4.6) msec
same,LSM heart rate change (95% UCB) from time-matched baseline,[1]; 3 h after dose,–0.1 (2.3) bpm
same,LSM QTcF Change (95% UCB) from time-matched baseline,[1]; 4 h after dose,–8.0 (–4.2) msec
same,LSM QTcI Change (95% UCB) from time-matched baseline,[1]; 4 h after dose,–7.2 (–2.9) msec
same,LSM heart rate change (95% UCB) from time-matched baseline,[1]; 4 h after dose,–0.2 (2.2) bpm
same,LSM QTcF Change (95% UCB) from time-matched baseline,[1]; 6 h after dose,–10.1 (–6.4) msec
same,LSM QTcI Change (95% UCB) from time-matched baseline,[1]; 6 h after dose,–8.8 (–4.6) msec
same,LSM heart rate change (95% UCB) from time-matched baseline,[1]; 6 h after dose,4.8 (7.1) bpm
same,LSM QTcF Change (95% UCB) from time-matched baseline,[1]; 8 h after dose,–4.2 (–0.3) msec
same,LSM QTcI Change (95% UCB) from time-matched baseline,[1]; 8 h after dose,–2.2 (2.4) msec
same,LSM heart rate change (95% UCB) from time-matched baseline,[1]; 8 h after dose,6.9 (9.4) bpm
same,LSM QTcF Change (95% UCB) from time-matched baseline,[1]; 10 h after dose,–12.5 (–7.1) msec
same,LSM QTcI Change (95% UCB) from time-matched baseline,[1]; 10 h after dose,–6.6 (–0.5) msec
same,LSM heart rate change (95% UCB) from time-matched baseline,[1]; 10 h after dose,8.6 bpm and 8.6 (12.1) bpm
same,LSM QTcF Change (95% UCB) from time-matched baseline,[1]; 24 h after dose,0.8 (4.5) msec
same,LSM QTcI Change (95% UCB) from time-matched baseline,[1]; 24 h after dose,7.1 msec and 7.1 (11.4) msec
same,LSM heart rate change (95% UCB) from time-matched baseline,[1]; 24 h after dose,12.4 bpm and 12.4 (14.7) bpm
same,LSM QTcF Change (95% UCB) from time-matched baseline,[1]; 48 h after dose,1.2 msec and 1.2 (5.8) msec
same,LSM QTcI Change (95% UCB) from time-matched baseline,[1]; 48 h after dose,2.8 (8.1) msec
same,LSM heart rate change (95% UCB) from time-matched baseline,[1]; 48 h after dose,5.4 (8.3) bpm
same,Clinically relevant (>20 milliseconds) effect on the QT interval,"[1]; 40 mg, patients with advanced solid tumors","does not produce clinically relevant (ie, >20 milliseconds) effects on the QT interval"
same,Patients with PR >200 msec,[1]; [6],1 (3.1) n (%)
same,Patients with QRS >110 msec,[1]; [6],0 (0) n (%)
same,Patients with QTcF >450 msec,[1]; [6],2 (6.3) n (%)
same,Patients with QTcF >480 msec,[1]; [6],0 (0) n (%)
same,Patients with QTcF >500 msec,[1]; [6],0 (0) n (%)
same,Patients with QTcI >450 msec,[1]; [6],6 (18.8) n (%)
same,Patients with QTcI >480 msec,[1]; [6],1 (3.1) n (%)
same,Patients with QTcI >500 msec,[1]; [6],0 (0) n (%)
same,Patients with ΔPR >25% at any time point,[1]; [6],1 (3.1) n (%)
same,Patients with ΔQRS >25% at any time point,[1]; [6],0 (0) n (%)
same,Patients with ΔQTcF >30 msec at any time point,[1]; [6],2 (6.3) n (%)
same,Patients with ΔQTcF >60 msec at any time point,[1]; [6],0 (0) n (%)
same,Patients with ΔQTcI >30 msec at any time point,[1]; [6],5 (15.6) n (%)
same,Patients with ΔQTcI >60 msec at any time point,[1]; [6],1 (3.1) n (%)
same,Patients with ΔQTcI between 30 and 60 milliseconds,"[1]; after 40 mg dose, of the 6 patients with prolonged QTcI, 32 evaluable",4 patients
same,hERG IC50 as multiple of anticipated free Cmax,[2],~583 times
same,pIC50,[3],4.28
same,pIC50,[4],3.76
same,Estimated free Cmax,monkey; 0.5 mg/kg,230 nM
same,Electrocardiographic changes,"monkey; single- or multiple-dose, up to 0.5 mg/kg",no remarkable electrocardiographic changes
same,Inhibition or induction of CYP enzymes,CYP enzymes,did not inhibit or induce CYP enzymes
same,Geometric Mean Cmax,[5]; 4 mg once daily,36.9 ng/mL ^a
same,Geometric Mean Cmax,[5]; 30 mg once weekly,235 ng/mL ^b
same,Anticipated free maximum plasma concentration (Cmax),"[5]; 40 mg, cancer patients",300 nM
same,Cmax,"[5]; 40 mg, cancer patients, read-out: Total Cmax",960 nM
same,Dose linearity of pharmacokinetics,[5]; 2- to 40-mg dose range,dose‐linear pharmacokinetics
same,Accumulation ratio,[5]; once-daily administration,~1
same,Accumulation,[5]; once-weekly administration,does not accumulate

# From publication PMC7586797, “Phase 1 Study to Evaluate the Effect of the Investigational Anticancer Agent Sapanisertib on the QTc Interval in Patients With Advanced Solid Tumors” (Clinical Pharmacology in Drug Development, 2020)
